# PubChem BioAssay (NCI)
#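 Values below derive from 48-hour exposures of cells grown in 96-well plates, with endpoints linearly interpolated between the two concentrations bracketing the appropriate inhibition level. Abbreviation: GI50, concentration required for 50% inhibition of growth. At the TGI there is no net growth.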
# Legend:
# Test in all cases: NCI-60 cell line screen, 48 h
# 786-0 renal = system: 786-0 renal
# A498 renal = system: A498 renal
# A549 NSCLC = system: A549 NSCLC
# ACHN renal = system: ACHN renal
# BT-549 breast = system: BT-549 breast
# CAKI-1 renal = system: CAKI-1 renal
# CCRF-CEM leukemia = system: CCRF-CEM leukemia
# COLO 205 colon = system: COLO 205 colon
# DU-145 prostate = system: DU-145 prostate
# EKVX NSCLC = system: EKVX NSCLC
# HCC-2998 colon = system: HCC-2998 colon
# HCT-116 colon = system: HCT-116 colon
# HCT-15 colon = system: HCT-15 colon
# HL-60(TB) leukemia = system: HL-60(TB) leukemia
# HOP-62 NSCLC = system: HOP-62 NSCLC
# HS 578T breast = system: HS 578T breast
# HT29 colon = system: HT29 colon
# IGROV1 ovarian = system: IGROV1 ovarian
# K-562 leukemia = system: K-562 leukemia
# KM12 colon = system: KM12 colon
# LOX IMVI melanoma = system: LOX IMVI melanoma
# M14 melanoma = system: M14 melanoma
# MALME-3M melanoma = system: MALME-3M melanoma
# MCF7 breast = system: MCF7 breast
# MDA-MB-231 breast = system: MDA-MB-231 breast
# MDA-MB-435 = system: MDA-MB-435
# MOLT-4 leukemia = system: MOLT-4 leukemia
# NCI-H226 lung = system: NCI-H226 lung
# NCI-H23 lung = system: NCI-H23 lung
# NCI-H460 lung = system: NCI-H460 lung
# NCI-H522 lung = system: NCI-H522 lung
# NCI/ADR-RES ovarian = system: NCI/ADR-RES ovarian
# OVCAR-3 ovarian = system: OVCAR-3 ovarian
# OVCAR-4 ovarian = system: OVCAR-4 ovarian
# OVCAR-5 ovarian = system: OVCAR-5 ovarian
# OVCAR-8 ovarian = system: OVCAR-8 ovarian
# PC-3 prostate = system: PC-3 prostate
# RPMI-8226 leukemia = system: RPMI-8226 leukemia
# RXF 393 renal = system: RXF 393 renal
# SF-268 CNS = system: SF-268 CNS
# SF-295 CNS = system: SF-295 CNS
# SF-539 CNS = system: SF-539 CNS
# SK-MEL-2 melanoma = system: SK-MEL-2 melanoma
# SK-MEL-28 melanoma = system: SK-MEL-28 melanoma
# SK-MEL-5 melanoma = system: SK-MEL-5 melanoma
# SK-OV-3 ovarian = system: SK-OV-3 ovarian
# SN12C renal = system: SN12C renal
# SNB-19 CNS = system: SNB-19 CNS
# SNB-75 CNS = system: SNB-75 CNS
# SR leukemia = system: SR leukemia
# SW-620 colon = system: SW-620 colon
# T-47D breast = system: T-47D breast
# TK-10 renal = system: TK-10 renal
# U251 CNS = system: U251 CNS
# UACC-257 melanoma = system: UACC-257 melanoma
# UACC-62 melanoma = system: UACC-62 melanoma
# UO-31 renal = system: UO-31 renal
compound,measurement,setting,value
O=C1c2ccccc2S(=O)(=O)N1CSC(=S)N1CCOCC1,GI50,786-0 renal,> 100 µM
same,TGI,786-0 renal,> 100 µM
same,GI50,A498 renal,> 100 µM
same,TGI,A498 renal,> 100 µM
same,GI50,A549 NSCLC,> 100 µM
same,TGI,A549 NSCLC,> 100 µM
same,GI50,ACHN renal,> 100 µM
same,TGI,ACHN renal,> 100 µM
same,GI50,BT-549 breast,> 100 µM
same,TGI,BT-549 breast,> 100 µM
same,GI50,CAKI-1 renal,> 100 µM
same,TGI,CAKI-1 renal,> 100 µM
same,GI50,CCRF-CEM leukemia,7.9 µM
same,TGI,CCRF-CEM leukemia,36.1 µM
same,GI50,COLO 205 colon,62.4 µM
same,TGI,COLO 205 colon,> 100 µM
same,GI50,DU-145 prostate,> 100 µM
same,TGI,DU-145 prostate,> 100 µM
same,GI50,EKVX NSCLC,> 100 µM
same,TGI,EKVX NSCLC,> 100 µM
same,GI50,HCC-2998 colon,> 100 µM
same,TGI,HCC-2998 colon,> 100 µM
same,GI50,HCT-116 colon,> 100 µM
same,TGI,HCT-116 colon,> 100 µM
same,GI50,HCT-15 colon,> 100 µM
same,TGI,HCT-15 colon,> 100 µM
same,GI50,HL-60(TB) leukemia,4.84 µM
same,TGI,HL-60(TB) leukemia,49.9 µM
same,GI50,HOP-62 NSCLC,> 100 µM
same,TGI,HOP-62 NSCLC,> 100 µM
same,GI50,HS 578T breast,> 100 µM
same,TGI,HS 578T breast,> 100 µM
same,GI50,HT29 colon,26.1 µM
same,TGI,HT29 colon,> 100 µM
same,GI50,IGROV1 ovarian,> 100 µM
same,TGI,IGROV1 ovarian,> 100 µM
same,GI50,K-562 leukemia,> 100 µM
same,TGI,K-562 leukemia,> 100 µM
same,GI50,KM12 colon,> 100 µM
same,TGI,KM12 colon,> 100 µM
same,GI50,LOX IMVI melanoma,> 100 µM
same,TGI,LOX IMVI melanoma,> 100 µM
same,GI50,M14 melanoma,31.1 µM
same,TGI,M14 melanoma,89.6 µM
same,GI50,MALME-3M melanoma,> 100 µM
same,TGI,MALME-3M melanoma,> 100 µM
same,GI50,MCF7 breast,49 µM
same,TGI,MCF7 breast,> 100 µM
same,GI50,MDA-MB-231 breast,> 100 µM
same,TGI,MDA-MB-231 breast,> 100 µM
same,GI50,MDA-MB-435,> 100 µM
same,TGI,MDA-MB-435,> 100 µM
same,GI50,MOLT-4 leukemia,19 µM
same,TGI,MOLT-4 leukemia,> 100 µM
same,GI50,NCI-H226 lung,> 100 µM
same,TGI,NCI-H226 lung,> 100 µM
same,GI50,NCI-H23 lung,> 100 µM
same,TGI,NCI-H23 lung,> 100 µM
same,GI50,NCI-H460 lung,70.1 µM
same,TGI,NCI-H460 lung,> 100 µM
same,GI50,NCI-H522 lung,24.8 µM
same,TGI,NCI-H522 lung,> 100 µM
same,GI50,NCI/ADR-RES ovarian,> 100 µM
same,TGI,NCI/ADR-RES ovarian,> 100 µM
same,GI50,OVCAR-3 ovarian,> 100 µM
same,TGI,OVCAR-3 ovarian,> 100 µM
same,GI50,OVCAR-4 ovarian,> 100 µM
same,TGI,OVCAR-4 ovarian,> 100 µM
same,GI50,OVCAR-5 ovarian,> 100 µM
same,TGI,OVCAR-5 ovarian,> 100 µM
same,GI50,OVCAR-8 ovarian,> 100 µM
same,TGI,OVCAR-8 ovarian,> 100 µM
same,GI50,PC-3 prostate,38.3 µM
same,TGI,PC-3 prostate,> 100 µM
same,GI50,RPMI-8226 leukemia,15.8 µM
same,TGI,RPMI-8226 leukemia,51.3 µM
same,GI50,RXF 393 renal,> 100 µM
same,TGI,RXF 393 renal,> 100 µM
same,GI50,SF-268 CNS,> 100 µM
same,TGI,SF-268 CNS,> 100 µM
same,GI50,SF-295 CNS,> 100 µM
same,TGI,SF-295 CNS,> 100 µM
same,GI50,SF-539 CNS,> 100 µM
same,TGI,SF-539 CNS,> 100 µM
same,GI50,SK-MEL-2 melanoma,> 100 µM
same,TGI,SK-MEL-2 melanoma,> 100 µM
same,GI50,SK-MEL-28 melanoma,61.8 µM
same,TGI,SK-MEL-28 melanoma,> 100 µM
same,GI50,SK-MEL-5 melanoma,58.1 µM
same,TGI,SK-MEL-5 melanoma,> 100 µM
same,GI50,SK-OV-3 ovarian,> 100 µM
same,TGI,SK-OV-3 ovarian,> 100 µM
same,GI50,SN12C renal,> 100 µM
same,TGI,SN12C renal,> 100 µM
same,GI50,SNB-19 CNS,> 100 µM
same,TGI,SNB-19 CNS,> 100 µM
same,GI50,SNB-75 CNS,65.4 µM
same,TGI,SNB-75 CNS,> 100 µM
same,GI50,SR leukemia,17.4 µM
same,TGI,SR leukemia,47 µM
same,GI50,SW-620 colon,69.1 µM
same,TGI,SW-620 colon,> 100 µM
same,GI50,T-47D breast,> 100 µM
same,TGI,T-47D breast,> 100 µM
same,GI50,TK-10 renal,> 100 µM
same,TGI,TK-10 renal,> 100 µM
same,GI50,U251 CNS,> 100 µM
same,TGI,U251 CNS,> 100 µM
same,GI50,UACC-257 melanoma,> 100 µM
same,TGI,UACC-257 melanoma,> 100 µM
same,GI50,UACC-62 melanoma,> 100 µM
same,TGI,UACC-62 melanoma,> 100 µM
same,GI50,UO-31 renal,> 100 µM
same,TGI,UO-31 renal,> 100 µM
